Measured values taken from patent publication US8969405B2, “Anticancer compounds and methods of making and using same” (St. Jude Children's Research Hospital, priority 2008, dated 2015).

Columns and labels:
[1] = test system: JeKo-1 mantle cell lymphoma cell line; experiment: In vitro cytotoxicity analysis (XTT), 72-hour exposure; format: cell-based; conditions: Homo sapiens, JEKo1 cells
Description: (§1) Briefly, cell lines were seeded at various cell densities depending on the cell type.
(§2) Tables 1-3 display cytotoxicity data for exemplary compounds following a 72-hour exposure.

[2] = test system: PC-3 prostate cancer cell line; experiment: as above; format: cell-based; conditions: Homo sapiens, PC3 cells
Description: as §1, §2

NOD/SCID mice = experiment: Mouse maximum tolerated dose (MTD) study; format: in vivo; conditions: for fatality: daily for five days, three mice per group
Description: The mice were monitored for one week following compound administration. […] There was one fatality in the IP 25 mg/kg and one in the IV 50 mg/kg groups.

[3] = test system: JeKo-1 mantle cell lymphoma tumors; experiment: In vivo efficacy study, JeKo-1 tumor-bearing mice
Description: Arrows indicate the dosing schedule. The data are represented as mean±SEM.
Studies were carried out to determine whether the above doses were capable of inhibiting tumor growth in mice (FIG. 4). […] A widely used criterion for determining antitumor activity is tumor growth inhibition (T/C). This value is calculated by dividing the median tumor volumes of treated mice by the median volumes in control mice.

[4] = Stability study in buffer solution by HPLC; format: physicochemical; conditions: 100 μM in PBS buffer and DMSO (2:1)
Description: Stability studies were performed for exemplary compounds 48 and 15. A 100 μM solution of compound 48 was prepared in buffer (PBS, pH 7.4) and warfarin was used as an internal standard. A sample was injected into a HPLC periodically starting at day 0 and ending at about 6 weeks to find out the stability of compound 48 in PBS solution. […] After 6 weeks, 58% of compound 48 remained in the buffer solution.

cell cycle = conditions: reported in the literature; cited from earlier work
[5] = test system: experimental tumors in mice; conditions: reported, Nakajima et al. 1996; cited from earlier work

SMILES	IC50 [1] [nM]	IC50 [2] [nM]	fatality (NOD/SCID mice; IP 25 mg/kg group)	fatality (NOD/SCID mice; IV 50 mg/kg group)	blood cell counts in treated versus vehicle-only mice (NOD/SCID mice; NOD/SCID mice, 5-50 mg/kg daily for five days, IV and IP)	weight loss (NOD/SCID mice; NOD/SCID mice, 5-50 mg/kg daily for five days, IV and IP, monitored one week after dosing)	total necropsies, organ histologies (NOD/SCID mice; NOD/SCID mice, treatment and vehicle-only groups)	fatalities or weight loss in efficacy study ([3]; 5, 10, 25, or 50 mg/kg IV daily for five consecutive days)	tumor volumes compared to vehicle-treated mice ([3]; 10, 25, or 50 mg/kg IV daily for five consecutive days from day 4)	compound remaining in the buffer ([4]; after 6 weeks) [%]	half-life at 100 μM ([4]; read-out: calculated half life (converted)) [days]	effect on the cell cycle (cell cycle)	activity in in vivo cancer animal models [5]
CC(/C=C/[C@@H]1C[C@]2(CO2)CC(C)(C)O1)=C\C[C@H]1CC[C@@H](NC(=O)/C=C\[C@H](C)OC(=O)C(C)C)CC1 [Compound 15, (S,Z)-5-((1R,4R)-4-((2E,4E)-5-((3R,5S)-7,7-dimethyl-1,6-dioxaspiro[2.5]octan-5-yl)-3-methylpenta-2,4-dienyl)cyclohexylamino)-5-oxopent-3-en-2-yl isobutyrate]	40	1900	one	one	No significant differences	No significant weight loss	no significant toxicities	No fatalities or significant weight loss	statistically significant decreases	53	50.6		
CC(=O)O[C@@H](C)/C=C\C(=O)N[C@@H]1C[C@H](C)[C@H](C/C=C(C)/C=C/[C@H]2O[C@](C)(O)C[C@@]3(CO3)[C@@H]2O)O[C@@H]1C [FR901464]												cell cycle arrest at the G1 and G2/M phases	showed activity
CC[C@H](O)[C@@H](C)[C@H]1O[C@@H]1C[C@H](C)/C=C/C=C(\C)[C@H]1OC(=O)C[C@H](O)CC[C@@](C)(O)[C@@H](OC(C)=O)/C=C/[C@@H]1C [pladienolide]												cell cycle arrest at the G1 and G2/M phases	
